This is an account of results in publication PMC8123663, “Small-Molecule Inhibitors of the RNA M6A Demethylases FTO Potently Support the Survival of Dopamine Neurons” (International Journal of Molecular Sciences, 2021).

Series [1] deals with T1, FTO protein (Homo sapiens, UniProt Q9C0B1). In words: Protein binding by microscale thermophoresis (MST). Details: purchased ProteoGenics SAS (ProteoGenix), Schiltigheim, France; host or cells: HEK293 (transient transfection). The settings on record: labelled FTO 20 nM, ligand 0–10 µM, 25 °C, pH 7.4. As to the method: The microscale thermophoresis (MST) experiments were performed using Monolith NT.115 instrument (NanoTemper Technologies GmbH, Germany). Recombinant human FTO protein was labeled through His-tag using Monolith His-Tag Labeling Kit RED-tris-NTA (NanoTemper Technologies GmbH; MO-L008). The labelled FTO protein (target) was used at 20 nM in all the experiments and 10 µM starting concentrations of ligands FTO inhibitors 2 or 3 were used in both series of experiments.
T1 sequence (Q9C0B1 whole entry): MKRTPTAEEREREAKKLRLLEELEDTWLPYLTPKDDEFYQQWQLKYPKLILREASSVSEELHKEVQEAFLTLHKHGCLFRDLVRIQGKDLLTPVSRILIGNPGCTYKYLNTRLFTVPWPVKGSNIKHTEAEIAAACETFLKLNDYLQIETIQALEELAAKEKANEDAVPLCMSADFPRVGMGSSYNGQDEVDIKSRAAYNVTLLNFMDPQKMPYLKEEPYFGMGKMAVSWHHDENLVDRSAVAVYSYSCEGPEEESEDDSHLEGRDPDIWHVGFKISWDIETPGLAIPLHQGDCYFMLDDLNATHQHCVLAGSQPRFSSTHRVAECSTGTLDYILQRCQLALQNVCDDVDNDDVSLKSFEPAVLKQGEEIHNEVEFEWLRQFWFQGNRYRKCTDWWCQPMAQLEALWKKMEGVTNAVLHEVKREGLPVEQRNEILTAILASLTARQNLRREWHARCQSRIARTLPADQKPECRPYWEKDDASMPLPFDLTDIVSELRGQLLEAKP
The measurements were done in a buffer containing 10 mM Na-phosphate buffer, pH 7.4, 1 mM MgCl2, 3 mM KCl, 150 mM NaCl, 0.05% Tween-20 in premium coated capillaries (NanoTemper Technologies GmbH; MO-K025) using red LED source, power set at 100% and medium MST power at 25 °C. Each data point represents mean fraction bound values from n = 3 independent experiments per binding pair ±S.D, Kd values ± error estimations are indicated. Data analysis was performed using MO.Affinity Analysis v2.3 software.

Another series relates to dopamine neurons. Put plainly: 6-OHDA induced death of dopamine neurons. The class given is cell-based. The settings on record: data not shown.
The subject of series [2] is mouse midbrain dopamine neurons. Put plainly: Survival of growth factor-deprived primary midbrain dopamine neurons. Conditions: for Neuroprotective effect at 10 nM / Neuroprotective effect at 100 nM / Neuroprotective effect at 1000 nM: growth factor deprivation; for Protection of embryonic midbrain dopamine neurons from growth factor deprivation-induced cell death: E13 mouse midbrain cultures, TH-positive cells, 10–1000 nM, five days; for Number of TH-positive neurons: three tested concentrations, growth factor deprivation model. Type of series: cell-based. As to the method: We, therefore, assessed the neuroprotective ability of different concentrations of FTO or ALKBH5 inhibitors in cultured growth factor deprived dopamine neurons. Human recombinant GDNF (100 ng/mL) or a condition without any neurotrophic compound added were used as positive and negative controls, respectively. Growth factor deprivation caused cell death by 50–70%. Representative images of mouse E13 wild-type midbrain cultures treated with vehicle, FTO or ALKBH5 inhibitors, and GDNF (positive control) probed with anti-TH antibody are shown on Figure 7B.
The midbrain floors were dissected from the ventral mesencephalic of 13 days old NMRI strain mouse embryos following the published procedure. The tissues were incubated with 0.5% trypsin (103139, MP Biomedicals, Inc, Thermo Fisher Scientific, Waltham, MA, USA) in HBSS (Ca^2+/Mg^2+-free) (14170112, Invitrogen, Thermo Fisher Scientific, Carlsbad, CA, USA) for 20 min at 37 °C, then mechanically dissociated. Cells were plated onto the 96-well plates coated with poly-L-ornithine (Sigma-Aldrich, Merck KGaA, St. Louis, MO, USA). Equal volumes of cell suspension were plated onto the center of the dish. The dopamine neurons were cultured for five DIV in presence of cell culture media Dulbecco’s MEM/Nut mix F12 (Invitrogen/Gibco; 21331–020), 100 × N2 serum supplement (Invitrogen/ Gibco; 17502–048), 33 mM D-Glucose (Sigma; G-8769), 0.5 mM L-Glutamine (Invitrogen/ Gibco; 25030–032), and 100 μg/mL Primocin (Invivo Gen, San Diego, CA, USA)]. On 6 DIV, to deprive growth factors, the cultures were washed three times with normal medium and the FTO and ALKBH5 inhibitors and glial cell line-derived neurotrophic factor (GDNF) were applied. The cells were grown for five days with different concentrations of FTO and ALKBH5 inhibitors. Human recombinant GDNF (100 ng/mL) (Icosagen AS, Tartu, Estonia) or a condition without any neurotrophic compound added were used as positive and negative controls, respectively.
After growing five days, the neuronal cultures were fixed and stained with anti-Tyrosine Hydroxylase antibody (MAB318, Millipore Bioscience Research Reagents, Temecula, CA, USA). Images were acquired by CellInsight (Thermo Fisher Scientific) high-content imaging equipment. Immunopositive neurons were counted by CellProfiler software and the data was analyzed by CellProfiler analyst software. The results are expressed as % of cell survival compared to GDNF-maintained neurons.

Series [3] addresses T1, FTO protein. In words: FTO enzyme inhibition assay (demethylation of m6A RNA probe). Type of series: biochemical. The arrangement: 6His (C); purchased ProteoGenics SAS (ProteoGenix), Schiltigheim, France; host or cells: HEK293 (transient transfection). Conditions: for IC50: 10 nM FTO, 200 ng m6A RNA probe, 2 h at RT; for Inhibitory effect on FTO: up to the 100 µM concentration. As for the experimental part:
The enzymatic assay was modified from Huang et al. The experiments were conducted in reaction buffer (50 mM Tris-HCl, pH 7.5, 300 μM 2OG, 280 μM (NH4)2Fe(SO4)2, and 2 mM L-ascorbic acid). The reaction mixture contained 200 ng methylated N^6-adenine RNA probe (SEQ ID NO: 1) (5′-CUUGUCAm6[…]-3′, Dharmacon, Lafayette, CO, USA) and 10 nM FTO protein and different concentrations of ligands (1 nM to 100 µM). Reactions were incubated on 96-well plate for 2 h at RT. After that, the amount of m^6A that was measured using EpiQuik m^6A RNA methylation Quantification Colorimetric Kit (Epigentek, Farmingdale, NY, USA).
The inhibitory effect IE of compounds on RNA probe demethylation by FTO was calculated as the enhancement of the m^6A amount as compared to the negative control (DMSO) relative to the difference between m^6A amounts of the positive control (max inhibition) and the negative control (Equation (2)) (2) IE=Cinh− CDMSO/Cinh(max)− CDMSO where Cinh, Cinh(max), and CDMSO are the amounts of m^6A at a given concentration of the inhibitor, maximum inhibition and in the case of DMSO, respectively.
Enzymatic assay curve-fitting analysis and determination of the IC50 and EC50 values were performed using AAT Bioquest, Inc. Quest Graph™ IC50 Calculator (v.1, Sunnyvale, CA, USA). MST data analysis was performed using MO.Affinity Analysis v2.3 software (NanoTemper Technologies GmbH, Munich, Germany). Statistical significance in cell survival experiments was assessed using one-way ANOVA and unpaired t-test with the GraphPad Prism8 software (GraphPad Software, Inc., 2365 Northside Dr., Suite 560, San Diego, CA, USA). Results were considered statistically significant at p values lower than 0.05.

For series [4], the system named is murine endothelial cells bEnd3 co-cultured with murine HIFko astrocytes. Put plainly: Artificial in vitro blood-brain barrier model. The class given is in vitro ADME. Conditions: 10 µM in insert, 1 h; concentration in well ('brain') / concentration in insert. An excerpt:
The effects of FTO inhibitors were studied in the artificial in vitro BBB model, where murine endothelial cells bEnd3 were co-cultured with murine HIFko astrocytes on hanging cell culture inserts. The BBB penetration % defined as the ratio of the concentration of the compound in the well (‘brain’) side and the concentration in the insert, were 31.7 ± 3.3% for compound 2 and 30.8 ± 1.9% for compound 3.
Artificial in vitro blood–brain barrier (BBB) was established as described by Le Joncour et al. Murine endothelial cells bEnd3 (ATCC CRL-2299) were co-cultured with murine hypoxia-inducible factor knock out (HIFko) astrocytes (passage 12, received from Le Joncour) on hanging cell culture inserts (BD Falcon 353091, Franklin Lakes, NJ, USA) for five days in fetal bovine serum (FBS)-free conditions. 2.5 mL of FTO inhibitors (final concentration of 10 µM) were added into the insert (representing the ‘blood’ side) of the BBB cell. After 1 h incubation, 1 mL of the sample was taken from the insert and from the well (‘brain’ side), and the concentration of the compounds was measured by high-performance liquid chromatography (HPLC). […] The concentration of the studied compounds is each side of the BBB cell were analyzed using LC-MS system consisting of Agilent 1290 UHPLC (Agilent, Inc., Santa Clara, CA, USA) and Agilent 6460 Triple Quadrupole MS (Agilent, Inc., Santa Clara, CA 95051, USA). […]

The subject of a further series is ALKBH5. Details: method as in earlier work. Conditions: read-out: IC50 against ALKBH5; cited from earlier work.

As a reminder, the Kd is a measure of binding affinity in units of concentration. Read a low Kd as higher affinity. A word on the IC50: it is the concentration that gives 50% inhibition.

Where “and” joins values, the source holds several entries; their conditions need not be identical. Equal entries are not always repeated. Entries after “also recorded” stand apart in the source; their conditions may differ.

Compound `Nc1cccc2cc(C(=O)O)cnc12` [Compound 3, 8-aminoquinoline-3-carboxylic acid] returned a Kd at FTO protein [1] of 337 nM. The “Rescue of dopamine neurons from 6-OHDA induced neuronal cell death” value with dopamine neurons was “recued dopamine neurons”. Besides, in series [2], the “Neuroprotective effect at 10 nM” value is “neuroprotective effect can be seen”, the “Neuroprotective effect at 100 nM” value is on record as “statistically significant outcome”, the “Neuroprotective effect at 1000 nM” value is on record as “statistically significant outcome” and the “Protection of embryonic midbrain dopamine neurons from growth factor deprivation-induced cell death” value (from here on “Protection”) is on record as “dose-dependently protected; also recorded: comparable to that of GDNF”. The same compound yielded an IC50 at FTO protein [3] of 28900 nM. The BBB penetration % in series [4] was 30.8% and 30.8 ± 1.9%.

Regarding `Nc1c(C(=O)O)cnc2ccccc12` [Compound 1, 4-aminoquinoline-3-carboxylic acid], on FTO protein [3], the “Inhibitory effect on FTO” value was “No significant inhibitory effect”.

Regarding `O=C(O)CSC(O)C(=O)c1ccccc1` (stereo not drawn) [Compound 7, 2-[(1-hydroxy-2-oxo-2-phenylethyl)sulfanyl]acetic acid], in series [2], the “Protection” value is recorded as “only trend” and the “Number of TH-positive neurons” value is listed as “increased”. Further, the IC50 in the series on ALKBH5 is 840 nM.

Turning to `Cc1cccc(C(=O)NNC(=O)c2cccc(C)c2)c1` [Compound 6, 3-methyl-N’-(3-methylbenzoyl)benzohydrazide], the “Inhibitory effect on FTO” value at FTO protein [3] was “No significant inhibitory effect”.

As for `Nc1c(C(=O)O)cnc2c(Cl)cccc12` [Compound 2, 4-amino-8-chloroquinoline-3-carboxylic acid], at FTO protein [1], the Kd came to 185 nM. In the series with dopamine neurons, the “Rescue of dopamine neurons from 6-OHDA induced neuronal cell death” value is recorded as “recued dopamine neurons”. Also, in series [2], the “Neuroprotective effect at 10 nM” value is on record as “neuroprotective effect can be seen”, the “Neuroprotective effect at 100 nM” value was “statistically significant outcome”, the “Neuroprotective effect at 1000 nM” value is listed as “statistically significant outcome” and the “Protection” value was “dose-dependently protected; also recorded: comparable to that of GDNF”. This compound also registered an IC50 against FTO protein [3] of 1460 nM. The BBB penetration % in series [4] was 31.7% and 31.7 ± 3.3%.

For “8-hydroxyquinoline-5-carboxylic acid [Compound 5]”, the “Inhibitory effect on FTO” value at FTO protein [3] was “No significant inhibitory effect”.

Consider `Cc1cccc(C(=O)NNC(=O)/C=C/C(=O)O)c1` [Compound 4, (2E)-4-[(3-methylphenyl)formohydrazido]-4-oxobut-2-enoic acid], for which the “Inhibitory effect on FTO” value at FTO protein [3] was “No significant inhibitory effect”.

For the compound `O=C1CC(NCc2ccco2)C(=O)NN1` (stereo not drawn) [Compound 8, 4-{[(furan-2-yl)methyl]amino}-1,2-diazinane-3,6-dione], in series [2], the “Neuroprotective effect at 10 nM” value was “rescued”, the “Neuroprotective effect at 100 nM” value is on record as “only a trend”, the “Neuroprotective effect at 1000 nM” value is given as “rescued” and the “Number of TH-positive neurons” value is recorded as “increased”.
